In one series the test system is A549. The series can be described thus: Cytotoxicity against human A549 cells measured after 72 hrs by CCK8 assay. It counts as functional, cell-based. The conditions noted are these: A549, 72 h. (Tetrazolium dyes change colour on reduction, which living cells bring about.)
Series [1] concerns U-87 MG. The series can be described thus: Cytotoxicity against human U87 cells measured after 72 hrs by CCK8 assay. The class given is functional, cell-based, U-87MG ATCC.
In a further series the test system is HeLa. The series can be described thus: Cytotoxicity against human HeLa cells measured after 72 hrs by CCK8 assay. The class given is functional, cell-based.
The test system of a further series is MCF7. The series can be described thus: Cytotoxicity against human MCF7 cells measured after 72 hrs by CCK8 assay. The class given is functional, cell-based. Particulars: MCF7, 72 h.
A short description of series [2]: Drug uptake in human MCF7 cells incubated for 24 hrs by confocal laser scanning microscopy. The conditions noted are these: mcf7, 24 h. The class given is ADME, cell-based.
Series [3] in a line: Drug uptake in human U87 cells incubated for 24 hrs by confocal laser scanning microscopy. The conditions noted are these: u-87mg atcc. The class given is ADME, cell-based.
Series [4] is described as follows: Drug uptake in human U87 cells at 20 nM by flow cytometry analysis. It counts as ADME, cell-based. The conditions noted are these: u-87mg atcc, 0.02 µM.
A short description of series [5]: Drug uptake in human U87 cells by flow cytometry analysis. Particulars: u-87mg atcc. The class given is ADME, cell-based.
Series [6] can be described thus: Stability in serum (unknown origin) assessed as compound remaining after 180 mins by HPLC analysis. It counts as ADME, cell-free. Particulars: read-out: Stability.
Series [7] deals with T1, DNA topoisomerase 1 (Homo sapiens) (UniProt P11387).
T1 sequence (whole entry): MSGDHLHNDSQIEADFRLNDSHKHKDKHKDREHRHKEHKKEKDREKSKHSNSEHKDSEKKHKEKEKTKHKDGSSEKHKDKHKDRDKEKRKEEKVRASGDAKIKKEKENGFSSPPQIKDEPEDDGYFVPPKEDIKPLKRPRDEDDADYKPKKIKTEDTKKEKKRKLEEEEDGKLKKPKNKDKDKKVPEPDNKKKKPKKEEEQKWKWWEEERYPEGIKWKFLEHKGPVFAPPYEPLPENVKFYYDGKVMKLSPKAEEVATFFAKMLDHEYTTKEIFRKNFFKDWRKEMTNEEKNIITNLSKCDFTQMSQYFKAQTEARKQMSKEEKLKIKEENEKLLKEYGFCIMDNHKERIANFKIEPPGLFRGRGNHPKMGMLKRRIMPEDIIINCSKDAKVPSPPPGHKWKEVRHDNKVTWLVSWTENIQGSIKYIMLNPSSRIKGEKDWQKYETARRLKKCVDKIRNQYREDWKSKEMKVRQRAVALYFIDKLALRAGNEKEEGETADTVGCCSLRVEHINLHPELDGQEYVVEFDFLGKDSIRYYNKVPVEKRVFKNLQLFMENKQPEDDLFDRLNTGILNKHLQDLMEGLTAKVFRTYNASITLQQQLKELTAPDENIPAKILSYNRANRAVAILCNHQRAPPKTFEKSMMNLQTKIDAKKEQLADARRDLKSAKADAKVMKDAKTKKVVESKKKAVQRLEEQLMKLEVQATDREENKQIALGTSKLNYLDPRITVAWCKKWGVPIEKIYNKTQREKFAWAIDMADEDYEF
The series is described as follows: Inhibition of topoisomerase 1 (unknown origin) mediated DNA relaxation using supercoiled pBR322 DNA as substrate incubated for 1 hr by EtBr staining based agarose gel electrophoresis method. Particulars: dose 500-1000 µM.

In series [8] the test system is U-87 MG. The series can be described thus: Inhibition of cell migration in human U87 cells at 25 nM after 16 hrs by scratch assay. It counts as functional, cell-based. The conditions noted are these: U-87MG ATCC.
The test system of series [9] is U-87 MG. The series can be described thus: Potency index ratio of 3-fluoro-10-hydroxy-Evodiamine IC50 to test compound IC50 for cytotoxicity against human U87 cells. The class given is functional, U-87MG ATCC.
Series [10] relates to U-87 MG. The series can be described thus: Inhibition of cell migration in human U87 cells at 25 nM incubated for 48 hrs by transwell assay relative to control. The class given is functional, U-87MG ATCC.
Series [11] concerns U-87 MG. The series can be described thus: Inhibition of colony formation in human U87 cells at 25 nM pretreated for 24 hrs followed by media replacement for every 3 days by crystal violet staining based assay. The class given is functional, cell-based. The conditions noted are these: U-87MG ATCC.
For series [12], the system named is U-87 MG. The series can be described thus: Induction of cell cycle arrest at G2 phase in human U87 cells at 25 nM incubated for 24 hrs by flow cytometry analysis. The class given is functional, U-87MG ATCC.

pIC50: −log10 of the molar value. The source made the active and inactive calls. No cut-off for these calls is given here.

Usually pIC50 stands for the negative decadic logarithm of the IC50, by convention in mol/L. Regarding `CN1c2ccc(F)cc2C(=O)N2CCc3c([nH]c4ccc(OC(=O)CSCC(=O)NCCCC[C@@H]5NC(=O)[C@H](Cc6ccccc6)NC(=O)[C@H](CC(=O)O)NC(=O)CNC(=O)[C@H](CCCNC(=N)N)NC5=O)cc34)C21` (stereo partly drawn), the pIC50 in the series on A549 was 7.27; in the series on U-87 MG [1], 7.08; with HeLa, 6.69; in the series on MCF7 it was 6.96.

In the case of `CCN(CC)c1ccc2cc(C(=O)NCCCCCC(=O)NCCCCC(NC(=O)CSCC(=O)Oc3ccc4[nH]c5c(c4c3)CCN3C(=O)c4cc(F)ccc4N(C)C53)C(=O)NCCC[C@@H]3NC(=O)[C@H](Cc4ccccc4)NC(=O)[C@H](CC(=O)O)NC(=O)CNC(=O)[C@H](CCCNC(=N)N)NC3=O)c(=O)oc2c1` (stereo partly drawn), the Drug uptake result in series [2] was “Not Active”; in [3], “Active”; in series [4], 44.8%; in series [5], “Dose-Dependent Effect and Tde”.

Regarding `CN1c2ccc(F)cc2C(=O)N2CCc3c([nH]c4ccc(OC(=O)CSCC(=O)NC[C@@H]5NC(=O)[C@H](Cc6ccccc6)NC(=O)[C@H](CC(=O)O)NC(=O)CNC(=O)[C@H](CCCNC(=N)N)NC5=O)cc34)C21` (stereo partly drawn), the pIC50 in the series with A549 is 7.29; with U-87 MG [1], 6.89; with HeLa, 7.13; in the series on MCF7 it was 7.51.

Turning to `CN1c2ccc(F)cc2C(=O)N2CCc3c([nH]c4ccc(OC(=O)CCSSCCC(=O)NCC[C@@H]5NC(=O)[C@H](Cc6ccccc6)NC(=O)[C@H](CC(=O)O)NC(=O)CNC(=O)[C@H](CCCNC(=N)N)NC5=O)cc34)C21` (stereo partly drawn), the pIC50 in the series on A549 was less than 6.30; in the series with U-87 MG [1], 6.61; in the series with HeLa, less than 6.30; in the series on MCF7, 6.79.

As for `CN1c2ccc(F)cc2C(=O)N2CCc3c([nH]c4ccc(OC(=O)CCSSCCC(=O)NCCC[C@@H]5NC(=O)[C@H](Cc6ccccc6)NC(=O)[C@H](CC(=O)O)NC(=O)CNC(=O)[C@H](CCCNC(=N)N)NC5=O)cc34)C21` (stereo partly drawn), the pIC50 in the series with A549 was less than 6.30; with U-87 MG [1], less than 6.30; in the series on HeLa it was 6.49; in the series on MCF7, 6.69.

Consider `CN1c2ccc(F)cc2C(=O)N2CCc3c([nH]c4ccc(OC(=O)CCCC(=O)NCC[C@@H]5NC(=O)[C@H](Cc6ccccc6)NC(=O)[C@H](CC(=O)O)NC(=O)CNC(=O)[C@H](CCCNC(=N)N)NC5=O)cc34)C21` (stereo partly drawn), for which the pIC50 was 6.46 with A549, 6.84 with U-87 MG [1], 6.51 with HeLa and 7.15 in the series with MCF7.

Consider `CN1c2ccc(F)cc2C(=O)N2CCc3c([nH]c4ccc(O)cc34)[C@H]21`, for which the pIC50 with A549 is 7.65; with U-87 MG [1], 6.86; in the series on HeLa, 7.03; in the series with MCF7 it was 8.28.

Take `CN1c2ccc(F)cc2C(=O)N2CCc3c([nH]c4ccc(OC(=O)CCCC(=O)NC[C@@H]5NC(=O)[C@H](Cc6ccccc6)NC(=O)[C@H](CC(=O)O)NC(=O)CNC(=O)[C@H](CCCNC(=N)N)NC5=O)cc34)C21` (stereo partly drawn): the pIC50 is 6.51 with A549, 6.54 in the series with U-87 MG [1], 6.52 with HeLa and 6.86 with MCF7.

Broadly, the inhibition is how much of the control response was suppressed. On to `CN1c2ccc(F)cc2C(=O)N2CCc3c([nH]c4ccc(OC(=O)CSCC(=O)NCCC[C@@H]5NC(=O)[C@H](Cc6ccccc6)NC(=O)[C@H](CC(=O)O)NC(=O)CNC(=O)[C@H](CCCNC(=N)N)NC5=O)cc34)C21` (stereo partly drawn), for which, in series [6], the remaining at 3 h turned out to be 60%. Besides, in series [7], the inhibition result was “Dose-Dependent Effect”. Besides, the pIC50 in the series on A549 was 7.34; in the series with U-87 MG [1], 7.52; in the series with HeLa, 6.90; with MCF7 it was 7.08. Further, the inhibition entry in the series with U-87 MG [8] and with U-87 MG [11] was “Active” each time. Also, in the series with U-87 MG [9], the “Ratio IC50” value is on record as 5. Moreover, in the series on U-87 MG [10], testing at 0.025 µM gave an inhibition of 25.5%. The same compound showed an Activity in the series on U-87 MG [12] of more than 90%.

Regarding `CN1c2ccc(F)cc2C(=O)N2CCc3c([nH]c4ccc(OC(=O)CCSSCCC(=O)NC[C@@H]5NC(=O)[C@H](Cc6ccccc6)NC(=O)[C@H](CC(=O)O)NC(=O)CNC(=O)[C@H](CCCNC(=N)N)NC5=O)cc34)C21` (stereo partly drawn), the pIC50 in the series with A549 was less than 6.30; in the series on U-87 MG [1] it was 6.39; with HeLa it was 6.55; with MCF7, 6.86.

As to `CN1c2ccc(F)cc2C(=O)N2CCc3c([nH]c4ccc(OC(=O)CSCC(=O)NCC[C@@H]5NC(=O)[C@H](Cc6ccccc6)NC(=O)[C@H](CC(=O)O)NC(=O)CNC(=O)[C@H](CCCNC(=N)N)NC5=O)cc34)C21` (stereo partly drawn), the negative logarithm of the IC50 (pIC50) in the series on A549 is 7.42; in the series on U-87 MG [1] it was 7.28; with HeLa, 7.27; in the series on MCF7 it was 7.22.

As for `CN1c2ccc(F)cc2C(=O)N2CCc3c([nH]c4ccc(OC(=O)CCCC(=O)NCCCC[C@@H]5NC(=O)[C@H](Cc6ccccc6)NC(=O)[C@H](CC(=O)O)NC(=O)CNC(=O)[C@H](CCCNC(=N)N)NC5=O)cc34)C21` (stereo partly drawn), the pIC50 is 6.32 with A549, 6.54 in the series with U-87 MG [1], 6.44 in the series on HeLa and 7.16 in the series with MCF7.

As for `CN1c2ccc(F)cc2C(=O)N2CCc3c([nH]c4ccc(OC(=O)CCSSCCC(=O)NCCCC[C@@H]5NC(=O)[C@H](Cc6ccccc6)NC(=O)[C@H](CC(=O)O)NC(=O)CNC(=O)[C@H](CCCNC(=N)N)NC5=O)cc34)C21` (stereo partly drawn), the pIC50 in the series with A549 is 6.41; in the series on U-87 MG [1], 6.34; with HeLa, 6.70; in the series with MCF7, 6.79.

As to `CN1c2ccc(F)cc2C(=O)N2CCc3c([nH]c4ccc(OC(=O)CCCC(=O)NCCC[C@@H]5NC(=O)[C@H](Cc6ccccc6)NC(=O)[C@H](CC(=O)O)NC(=O)CNC(=O)[C@H](CCCNC(=N)N)NC5=O)cc34)C21` (stereo partly drawn), the pIC50 in the series on A549 is 6.34; in the series on U-87 MG [1], less than 6.30; in the series on HeLa, 6.49; with MCF7, 7.04.

Source of the values: ChEMBL document CHEMBL5550164, “Enhancing anticancer treatment: Development of cRGD-Conjugated F-OH-Evo prodrugs for targeted delivery” (Bioorg Med Chem, 2024).
